Legend:
Type in all cases: physicochemical
[1] = Solubility of C21 sodium salt in aqueous vehicles
Procedure: In this experiment, C21 sodium salt (Syntagon AB) was added to the vehicle, small amounts at a time. About 20-30 mg of the sodium salt was easily dissolved in all the vehicles tested. Salt was continuously added to the same sample in an attempt to obtain a saturated solution. In this way, higher amounts, such as 40-60 mg/mL could be dissolved. The solubility is probably even higher than this in the vehicles tested, but this was not established in view of the limited amount of drug compound available.

[2] = Stability of aqueous solutions of C21 (free C21 1 mg/mL in 0.9% NaCl pH 9.4; sodium salt likewise) under four storage conditions, HPLC; settings: for light-induced degradation: aqueous solution, RT/light; for chemical stability: solution stored in dark at 5° C., RT and 40° C. for four weeks
Procedure: The stability of free C21 in 0.9% NaCl pH 9.4 was investigated.
Solutions of 1 mg/mL of C21 were studied for four weeks under four different storage conditions. The solution was filtered through a 0.22 sterile syringe filter to minimize bacterial growth during the stability test. The samples were analysed by HPLC for purity.
The results are summarised in Table 3 below, in which the amount of C21 is given as a percentage of the initial amount of drug. Solution pHs were also measured and are shown within parenthesis in Table 3.
The stability of the sodium salt of C21 was also investigated under the same storage conditions.
At the time for analysis of the one week samples, it was noted that the heating cabinet for storage of samples at 40° C. was broken. In view of this, these samples were thereafter kept at room temperature for three days.

[3] = Excipient compatibility study, 60° C. for 12 days (related impurities)
Procedure: The excipients used in the capsules in Comparative Example 3 above were evaluated along with some additional ones (see Table 8 below).
C21 (sodium salt) used in these experiments was ground and passed through a 300 μm sieve. Mixtures of each excipient and C21 were prepared by thorough mixing in the amounts specified in Table 8. The ratio of C21 to various fillers (D-mannitol, MCC, lactose monohydrate and HPMC) was adapted to give a volume equivalent to the larger part of a capsule.
Three capsules of each type were filled with C21. All preparations were stored under accelerated stability conditions at 60° C. for 12 days prior to analysis.
In addition to the disintegrants (sodium starch glycolate and croscarmellose sodium) mentioned above, crospovidone of two different types (Kollidon® CL (Type A), and Kollidon® CL-SF (Type B) (both BASF) were tested.
Mixtures of 130 mg crospovidone and 200 mg C21 were prepared and were thoroughly mixed using a Turbula mixer for 10 minutes. All of these preparations were analysed at time zero and after storage at accelerated stability conditions at 60° C. for 12 days.

[4] = Accelerated stability of C21/mannitol powder mixtures, 60° C. for 12 days
Procedure: C21 sodium salt was used together with 7 different types of mannitol from two different manufacturers.
C21 and mannitol were added to glass flasks and were mixed together using a Turbula mixer. At a mixing time of 30 minutes, each flask was sampled for homogeneity and related impurities were analysed.
An aliquot of each powder mixture was also subjected to 60° C. for 12 days in a stability analysis. The nominal content of C21 was 7.4% w/w (calculated as free C21) for all mannitol mixtures except one, where an additional strength of 14.8% w/w was also tested.

For CCCCOC(=O)[N-]S(=O)(=O)c1sc(CC(C)C)cc1-c1ccc(Cn2ccnc2)cc1.[Na+] [C21 sodium salt], the “amount that could be dissolved” value ([1]; salt continuously added, vehicles tested, saturation not established) was 40 to 60 mg/mL, the “solubility compared with free C21” value ([1]; similar experiment) was “considerably higher than free C21” and the “Concentration (solubility)” value ([1]; vehicle 0.9% NaCl, pH 9.3) was >40 mg/mL. For the same compound, the “Concentration (solubility)” value ([1]; vehicle H2O, pH 9.8) was >65 mg/mL, the “Concentration (solubility)” value ([1]; vehicle PBS pH 7.4, measured pH 9.4) was >40 mg/mL and the “Amount of Free C21, % of initial” value ([2]; 5° C., dark, 1 week) was 108 % of initial. The “Solution pH (within parenthesis)” value ([2]; 5° C., dark, 1 week) was 8.5, the “Amount of Free C21, % of initial” value ([2]; 5° C., dark, 2 weeks) was 113 % of initial and the “Solution pH (within parenthesis)” value ([2]; 5° C., dark, 2 weeks) was 8.4. For the same compound, the “Amount of Free C21, % of initial” value ([2]; 5° C., dark, 3 weeks) was 113 % of initial, the “Solution pH (within parenthesis)” value ([2]; 5° C., dark, 3 weeks) was 8.5 and the “Amount of Free C21, % of initial” value ([2]; 5° C., dark, 4 weeks) was 112 % of initial. The “Solution pH (within parenthesis)” value ([2]; 5° C., dark, 4 weeks) was 8.5, the “Amount of Free C21, % of initial” value ([2]; 5° C., dark, Initial) was 100 % of initial and the “Solution pH (within parenthesis)” value ([2]; 5° C., dark, Initial) was 8.3. The “Amount of Free C21, % of initial” value ([2]; 40° C., dark, 1 week) was 111 % of initial, the “Solution pH (within parenthesis)” value ([2]; 40° C., dark, 1 week) was 8.6 and the “Amount of Free C21, % of initial” value ([2]; 40° C., dark, 2 weeks) was 111 % of initial. The “Solution pH (within parenthesis)” value ([2]; 40° C., dark, 2 weeks) was 8.5, the “Amount of Free C21, % of initial” value ([2]; 40° C., dark, 3 weeks) was 109 % of initial and the “Solution pH (within parenthesis)” value ([2]; 40° C., dark, 3 weeks) was 8.7. The “Amount of Free C21, % of initial” value ([2]; 40° C., dark, 4 weeks) was 118 % of initial, the “Solution pH (within parenthesis)” value ([2]; 40° C., dark, 4 weeks) was 8.1 and the “Amount of Free C21, % of initial” value ([2]; 40° C., dark, Initial) was 100 % of initial. The “Solution pH (within parenthesis)” value ([2]; 40° C., dark, Initial) was 8.3, the “Amount of Free C21, % of initial” value ([2]; RT, dark, 1 week) was 115 % of initial and the “Solution pH (within parenthesis)” value ([2]; RT, dark, 1 week) was 8.6. For the same compound, the “Amount of Free C21, % of initial” value ([2]; RT, dark, 2 weeks) was 110 % of initial, the “Solution pH (within parenthesis)” value ([2]; RT, dark, 2 weeks) was 8.8 and the “Amount of Free C21, % of initial” value ([2]; RT, dark, 3 weeks) was 111 % of initial. The “Solution pH (within parenthesis)” value ([2]; RT, dark, 3 weeks) was 8.8, the “Amount of Free C21, % of initial” value ([2]; RT, dark, 4 weeks) was 112 % of initial and the “Solution pH (within parenthesis)” value ([2]; RT, dark, 4 weeks) was 8.2. For the same compound, the “Amount of Free C21, % of initial” value ([2]; RT, dark, Initial) was 100 % of initial, the “Solution pH (within parenthesis)” value ([2]; RT, dark, Initial) was 8.3 and the “Amount of Free C21, % of initial” value ([2]; RT, light, 1 week) was 108 % of initial. The “Solution pH (within parenthesis)” value ([2]; RT, light, 1 week) was “(8.4)”, the “Amount of Free C21, % of initial” value ([2]; RT, light, 2 weeks) was 96 % of initial and the “Solution pH (within parenthesis)” value ([2]; RT, light, 2 weeks) was “(8.0)”. For the same compound, the “Amount of Free C21, % of initial” value ([2]; RT, light, 3 weeks) was 72 % of initial, the “Solution pH (within parenthesis)” value ([2]; RT, light, 3 weeks) was “(8.3)” and the “Amount of Free C21, % of initial” value ([2]; RT, light, 4 weeks) was 9 % of initial. The “Solution pH (within parenthesis)” value ([2]; RT, light, 4 weeks) was “(7.3)”, the “Amount of Free C21, % of initial” value ([2]; RT, light, Initial) was 100 % of initial and the “Solution pH (within parenthesis)” value ([2]; RT, light, Initial) was “(8.3)”. For the same compound, the “light-induced degradation” value [2] was “light-induced degradation occurs”, the “chemical stability” value [2] was “chemically stable” and the “Degradation: Sum of impurities (≥0.05%)” value [3] was 0.26%. For the same compound, the “Individual Impurity 1” value [3] was 0.26 area %, the “degradation of C21” value [3] was “No degradation” and the “Impurities ≥0.05% Formed: 1” value [4] was 0.26 area %.

In the case of CCCCOC(=O)NS(=O)(=O)c1sc(CC(C)C)cc1-c1ccc(Cn2ccnc2)cc1 [free C21, N-butyloxycarbonyl-3-(4-imidazol-1-ylmethylphenyl)-5-iso-butylthiophene-2-sulfonamide], the “Amount of Free C21, % of initial” value ([2]; 5° C., dark, 1 week) is reported as 101 % of initial, the “Solution pH (within parenthesis)” value ([2]; 5° C., dark, 1 week) is reported as 9.2 and the “Amount of Free C21, % of initial” value ([2]; 5° C., dark, 2 weeks) is reported as 107 % of initial. For the same compound, the “Solution pH (within parenthesis)” value ([2]; 5° C., dark, 2 weeks) was 9.2, the “Amount of Free C21, % of initial” value ([2]; 5° C., dark, 3 weeks) was 108 % of initial and the “Solution pH (within parenthesis)” value ([2]; 5° C., dark, 3 weeks) was 9.1. For the same compound, the “Amount of Free C21, % of initial” value ([2]; 5° C., dark, 4 weeks) was 108 % of initial, the “Solution pH (within parenthesis)” value ([2]; 5° C., dark, 4 weeks) was 9.2 and the “Amount of Free C21, % of initial” value ([2]; 5° C., dark, Initial) was 100 % of initial. For the same compound, the “Solution pH (within parenthesis)” value ([2]; 5° C., dark, Initial) was 9.4, the “Amount of Free C21, % of initial” value ([2]; 40° C., dark, 1 week) was 101 % of initial and the “Solution pH (within parenthesis)” value ([2]; 40° C., dark, 1 week) was 9.0. For the same compound, the “Amount of Free C21, % of initial” value ([2]; 40° C., dark, 2 weeks) was 111 % of initial, the “Solution pH (within parenthesis)” value ([2]; 40° C., dark, 2 weeks) was 8.6 and the “Amount of Free C21, % of initial” value ([2]; 40° C., dark, 3 weeks) was 106 % of initial. The “Solution pH (within parenthesis)” value ([2]; 40° C., dark, 3 weeks) was 8.7, the “Amount of Free C21, % of initial” value ([2]; 40° C., dark, 4 weeks) was 107 % of initial and the “Solution pH (within parenthesis)” value ([2]; 40° C., dark, 4 weeks) was 8.7. For the same compound, the “Amount of Free C21, % of initial” value ([2]; 40° C., dark, Initial) was 100 % of initial, the “Solution pH (within parenthesis)” value ([2]; 40° C., dark, Initial) was 9.4 and the “Amount of Free C21, % of initial” value ([2]; RT, dark, 1 week) was 97 % of initial. The “Solution pH (within parenthesis)” value ([2]; RT, dark, 1 week) was “(9.2)”, the “Amount of Free C21, % of initial” value ([2]; RT, dark, 2 weeks) was 109 % of initial and the “Solution pH (within parenthesis)” value ([2]; RT, dark, 2 weeks) was “(8.9)”. For the same compound, the “Amount of Free C21, % of initial” value ([2]; RT, dark, 3 weeks) was 105 % of initial, the “Solution pH (within parenthesis)” value ([2]; RT, dark, 3 weeks) was “(9.0)” and the “Amount of Free C21, % of initial” value ([2]; RT, dark, 4 weeks) was 106 % of initial. The “Solution pH (within parenthesis)” value ([2]; RT, dark, 4 weeks) was “(8.9)”, the “Amount of Free C21, % of initial” value ([2]; RT, dark, Initial) was 100 % of initial and the “Solution pH (within parenthesis)” value ([2]; RT, dark, Initial) was “(9.4)”. The “Amount of Free C21, % of initial” value ([2]; RT, light, 1 week) was 96 % of initial, the “Solution pH (within parenthesis)” value ([2]; RT, light, 1 week) was “(9.0)” and the “Amount of Free C21, % of initial” value ([2]; RT, light, 2 weeks) was 44 % of initial. For the same compound, the “Solution pH (within parenthesis)” value ([2]; RT, light, 2 weeks) was “(8.0)”, the “Amount of Free C21, % of initial” value ([2]; RT, light, 3 weeks) was 96 % of initial and the “Solution pH (within parenthesis)” value ([2]; RT, light, 3 weeks) was “(8.5)”. For the same compound, the “Amount of Free C21, % of initial” value ([2]; RT, light, 4 weeks) was 13 % of initial, the “Solution pH (within parenthesis)” value ([2]; RT, light, 4 weeks) was “(7.7)” and the “Amount of Free C21, % of initial” value ([2]; RT, light, Initial) was 100 % of initial. The “Solution pH (within parenthesis)” value ([2]; RT, light, Initial) was “(9.4)”, the “light-induced degradation” value [2] was “light-induced degradation occurs” and the “total impurity peak area” value ([2]; free C21 solution, samples stored at 5° C., RT/dark and 40° C.) was “around 2.5 area % of C21 peak area”. For the same compound, the “chemical stability” value [2] was “chemically stable”.
